Data as given in the METLIN SMRT retention time set (Domingo-Almenara et al. 2019).

Test: gradient 5% acetonitrile 3 min, to 50% in 2 min, to 85% in 15 min, held 3 min, 100 µL/min
Conditions: column: Zorbax Extend-C18 2.1 x 50 mm; eluents: water / acetonitrile, 0.1% formic acid
Method in brief: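 Data were gathered over 3 months by HPLC coupled to a quadrupole time-of-flight mass spectrometer, operated in positive and negative ionization mode. Mixtures of ~100 pure standards ran on a Zorbax Extend-C18 column (2.1 × 50 mm, 1.8 μm) at 100 μL/min, with water and acetonitrile each containing 0.1% formic acid and dead and dwell volumes of 40 μL and 900 μL. Retention time was read from adduct peaks picked by computer and checked manually.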

| RP-LC retention time [s] | Compound |
| --- | --- |
| 945 | CCS(=O)(=O)N1CCCc2cc(C(=O)NCc3ccco3)ccc21 |
| 960 | Cc1c(C(=O)N2CCSCC2)cnn1-c1ccc(-c2nc(C3CC3)no2)cn1 |
| 840 | COc1ccc(NC(=O)C2CCN(S(=O)(=O)c3ccc4c(c3)sc(=O)n4C)CC2)c(OC)c1 |
| 613 | O=C1C(N2CCN(S(=O)(=O)c3ccc(Cl)s3)CC2)CCN1Cc1ccccn1 (stereo unspecified) |
| 646 | COc1ccc(NC(=O)C2CC(=O)N(c3n[nH]c4ccccc34)C2)cn1 (stereo unspecified) |
| 529 | CCN1CCN(c2ncc3c(n2)CCN(Cc2cccc(C)c2)C3)CC1 |
| 1170 | Cc1ccc(-c2nc(-c3ccc4nnn(C)c4c3)no2)c(C)c1 |
| 898 | COc1ccccc1NC(=O)C1CCCN(S(=O)(=O)c2c[nH]c(C(=O)N3CCCCCC3)c2)C1 (stereo unspecified) |
| 649 | CCN(CCCNC(=O)C1CCCN(c2ncnc3c2oc2ccccc23)C1)c1ccccc1 (stereo unspecified) |
| 742 | COc1ccc(-c2nc3ccccc3c3nnc(SCc4cn5ccccc5n4)n23)cc1 |
| 752 | O=C(Nc1ccccc1)C1CCN(C(=O)c2ncn3c2COC(c2ccccc2)C3)CC1 (stereo unspecified) |
| 742 | O=C(NCc1csc(C2CCN(C(=O)c3ccc(F)c(F)c3)CC2)n1)C1CCC1 |
| 1000 | CCn1c(=O)sc2cc(S(=O)(=O)N3CCC(C(=O)NCc4cccc(OC)c4)CC3)ccc21 |
| 758 | Cc1ccc2cc(CCC(=O)O)c(=O)[nH]c2c1 |
| 645 | CCOc1ccc(CC(=O)N2C[C@@H]3C[C@H](NC(=O)c4cccnc4)[C@H]2C3)cc1 |
| 1400 | CC(C)(C)c1ccc(-c2cc(C(=O)O)c3ccc(Br)cc3n2)cc1 |
| 881 | O=C(Nc1ccc2c(c1)OCCO2)C1CN(S(=O)(=O)C2CC2)CC12CCCCC2 (stereo unspecified) |
| 574 | O=C(NCCN1CCN(S(=O)(=O)c2ccccc2)CC1)c1c(F)cccc1Cl |
| 1270 | Cc1sc(-c2cc(C(F)(F)F)on2)cc1S(=O)(=O)N1CCc2ccccc21 |
| 899 | COc1ccc(-c2noc(C3CCCN3C(=O)C3CCC3)n2)cc1 (stereo unspecified) |
| 589 | Cc1ccc(CN2C[C@@H]3C(=O)N(CCCN4CCCC4=O)C(=O)[C@@H]3C2)cc1 |
| 702 | O=C1c2ccccc2C(O)(c2ccccc2)N1c1ccncc1 (stereo unspecified) |

| RP-LC retention time [s] | Compound |
| --- | --- |
| 997 | Cc1cccc(NS(=O)(=O)c2ccc(-c3c(C)noc3C)cc2)c1C |
| 883 | COC(=O)C(=Cc1ccccc1[N+](=O)[O-])C(=O)OC |
| 758 | O=C(CCCc1ccccc1)N1CCN(c2ccc(-n3cccn3)nn2)CC1 |
| 847 | Cc1ccc([C@@H]2O[C@H](CO)[C@@H](O)[C@H](O)[C@H]2O)cc1Cc1ccc(-c2ccc(F)cc2)s1 |
| 870 | COc1ccc(S(=O)(=O)N2CCCC(C(=O)NCCc3ccc(OC)c(OC)c3)C2)cc1C (stereo unspecified) |
| 856 | O=C(CCC1CCCN(C(=O)Nc2ccc(F)cc2)C1)NCc1ccc(Cl)cc1 (stereo unspecified) |
| 647 | CCc1noc(C2CCCCN2C(=O)c2c[nH]c3ccccc23)n1 (stereo unspecified) |
| 644 | COCCNc1nc(-c2ccc(OC)cc2)nc2ccccc12 |
| 1120 | Cc1nc(-c2cc(S(=O)(=O)Nc3ccccc3Cl)c(C)s2)sc1C |
| 771 | CCN1CCCn2cc(S(=O)(=O)NCc3ccc(F)cc3Cl)cc2C1=O |
| 1450 | FC(F)(F)c1cc(-c2cccs2)n(-c2nc(-c3ccccc3)cs2)n1 |
| 1150 | O=C(C1CCN(S(=O)(=O)c2cc(-c3noc(C4CCC4)n3)cs2)CC1)N1CCc2ccccc21 |
| 919 | O=C([C@@H]1C[C@H](F)CN1S(=O)(=O)Cc1ccccc1F)N1CCc2ccccc2C1 |
| 1100 | CCn1c(=O)c(N2CCCC(C(=O)N3CCN(c4cccc(OC)c4)CC3)C2)nc2ccccc21 (stereo unspecified) |
| 1190 | Cc1cc(C)nc(N2CCN(c3cc(C)nc4c(-c5ccc(F)cc5)cnn34)CC2)n1 |
| 728 | COc1ccc(-c2cc3nn(CC(=O)NCC4CCCO4)c(=O)n3c(C)n2)cc1 (stereo unspecified) |
| 752 | COc1cccc(NC(=O)C2CCN(C(=O)C3Sc4ccccc4NC3=O)CC2)c1 (stereo unspecified) |
| 589 | CCCNC(=O)Cn1c(CC)nc2c(c1=O)CN(Cc1ccccc1)CC2 |
| 892 | O=C(CCc1nc(CSc2nnc(-c3ccccc3)o2)no1)Nc1ccc(F)cc1 |
| 959 | CCOc1cccc(C2c3[nH]c4ccccc4c3CCN2C(=O)c2ccncc2)c1 (stereo unspecified) |
| 655 | CCOC(=O)C(=O)NCc1nnnn1C1CCCCC1 |
| 783 | COc1cccc(CNC(=O)COc2cc(C)nc(N3CCN(c4ccccc4)CC3)n2)c1OC |

| RP-LC retention time [s] | Compound |
| --- | --- |
| 967 | O=C(C1CCN(c2ncccc2-c2nc(-c3ccccc3)no2)CC1)N1CCN(c2ncccn2)CC1 |
| 841 | CC(C)(C)c1cc(NCc2ccccn2)n2ncc(-c3ccc(Cl)cc3)c2n1 |
| 630 | COc1ccc(-c2nc(-c3ccc4c(c3)ncn4CCN3CCCCC3)no2)cc1OC |
| 799 | Cn1nc(-c2ccccc2)c2ccccc2c1=O |
| 928 | Cc1ccccc1CNC(=O)c1sc(-c2cn(C)c3ncccc23)nc1C |
| 808 | Cc1ccc(N2C(=O)CCS2(=O)=O)cc1S(=O)(=O)Nc1cccc2cccnc12 |
| 1160 | O=C(Nc1ccsc1-c1nnc(C2CC2)o1)c1cccs1 |
| 613 | CC(C)c1cc(N2CCN(C(=O)Cc3cccs3)CC2)nc2nncn12 |
| 559 | CCc1nnc2nc(N3CCN(C(=O)c4nccc5ccccc45)CC3)cc(C)n12 |
| 1090 | Cc1cc(S(=O)(=O)N2CCc3nc(-c4ccccc4)ncc3C2)ccc1F |
| 970 | O=C(NC1CC1)c1ccc(-c2nc3cccnc3n(C3CCCC3)c2=O)cc1 |
| 664 | CCOc1ccccc1N1CCN(CC(O)c2ccc3c(c2)OCO3)CC1 (stereo unspecified) |
| 893 | Cc1cc2c(c(=O)n(-c3ccc(F)cc3)c(=O)n2CC(=O)N2CCCc3ccccc32)n1C |
| 787 | Cc1ccccc1CC(=O)N1CCC2(CC1)NC(=O)c1cc(F)ccc1N2C |
| 769 | Cc1cccc(NC(=O)C2CCN(S(=O)(=O)c3cc(C(=O)N4CCCCCC4)cs3)CC2)n1 |
| 981 | CCOc1ccc(NC(=O)Cn2c(=O)n(-c3ccccc3)c(=O)c3sc(SCC)nc32)cc1 |
| 659 | Cc1ncoc1C(=O)N1CCOc2ccc(NC(=O)C3CC3)cc2C1 |
| 946 | O=C(NCCc1cccs1)C1CCN(S(=O)(=O)c2ccc(-c3noc(C4CC4)n3)cc2)CC1 |
| 766 | COc1cncc(C(=O)Nc2cc(F)ccc2Cl)c1 |
| 967 | CC1=C(c2ccc(C)c(C)c2)S(=O)(=O)N=C1N1CCCN(C(=O)CC2CCCC2)CC1 |
| 645 | Cc1cc(N2CCN(C)CC2)nc2ccc(NC(=S)N3CCN(c4ccc(Cl)cc4)CC3)cc12 |
| 697 | COCCC(=O)N1CCCN(C2=NS(=O)(=O)C(c3ccc(F)cc3)=C2C)CC1 |

| RP-LC retention time [s] | Compound |
| --- | --- |
| 1020 | CCOc1ccc(-c2ccc(=O)n(CCc3nc(-c4cc(OC)cc(OC)c4)no3)n2)cc1 |
| 906 | CCOc1ccc(NC(=O)CSc2ccc(S(=O)(=O)c3ccccc3)nn2)cc1 |
| 579 | Cc1cc(N2CCCC2)nc(N2CCN(C(=O)c3ccccc3Br)CC2)n1 |
| 826 | COc1ccc(CN(C(=O)c2oc3ccccc3c2C)C2CCS(=O)(=O)C2)cc1OC (stereo unspecified) |
| 791 | Cc1cccc(NC(=O)Cn2nc3nc(N4CCCC(C)C4)ccn3c2=O)c1 (stereo unspecified) |
| 794 | CSc1ccc(CNC(=O)Cc2nnc(-c3cccc(F)c3)o2)cc1 |
| 637 | COCCNC(=O)CCc1cc2cc(C)ccc2[nH]c1=O |
| 782 | O=C(Nc1cccc(-c2ccc(N3CCOCC3)nn2)c1)Nc1cccc(C(F)(F)F)c1 |
| 1150 | COc1ccc(NC(=O)c2cn(-c3cc(N4CCC(C)CC4)ncn3)cn2)c(OC)c1 |
| 720 | Cc1ccc(C(=O)NCCc2cn(C)c3ncccc23)cc1F |
| 636 | O=C(CN1C(=O)C2CCCCN2c2ccc(S(=O)(=O)N3CCCC3)cc21)NCCN1CCCC1 (stereo unspecified) |
| 582 | O=c1ccc(-c2ccncc2)nn1CCCNS(=O)(=O)/C=C/c1ccccc1 |
| 1090 | O=C(c1ccc(F)cc1)N1CCCC1c1nc(-c2cccc(C(F)(F)F)c2)no1 (stereo unspecified) |
| 570 | Cc1cc(C)n(CC(=O)NCCc2c[nH]c3ccccc23)c(=O)n1 |
| 707 | Cn1nc2n(c1=O)CCN(Cc1ccc(C(C)(C)C)cc1)C2 |
| 1190 | CCOc1cc(-c2noc(-c3nnn4c3COC(c3ccc(Cl)cc3)C4)n2)ccc1OC (stereo unspecified) |
| 777 | CCC(C(=O)NCc1ccco1)n1c2ccccc2c2cnn(C)c(=O)c21 (stereo unspecified) |
| 853 | Cc1ccc(CNC(=O)c2cc3n(n2)CCCN(Cc2cccc(F)c2)C3=O)o1 |
| 977 | Cc1cc(C(=O)N2CCCCCC2)nc2cc(-c3cccs3)nn12 |
| 1000 | Cc1ccc(C)c(N2CCN(c3ccnc(SCC(=O)Nc4ccc(F)cc4F)n3)CC2)c1 |
